These results are taken from US20240294522A1 (Lead Discovery Center GmbH, priority 2021, published 2024).

One test concerns the target T1, GRK2 (Homo sapiens, UniProt P25098).
T1 construct: purchased Thermo Scientific
T1 sequence (P25098 1-689): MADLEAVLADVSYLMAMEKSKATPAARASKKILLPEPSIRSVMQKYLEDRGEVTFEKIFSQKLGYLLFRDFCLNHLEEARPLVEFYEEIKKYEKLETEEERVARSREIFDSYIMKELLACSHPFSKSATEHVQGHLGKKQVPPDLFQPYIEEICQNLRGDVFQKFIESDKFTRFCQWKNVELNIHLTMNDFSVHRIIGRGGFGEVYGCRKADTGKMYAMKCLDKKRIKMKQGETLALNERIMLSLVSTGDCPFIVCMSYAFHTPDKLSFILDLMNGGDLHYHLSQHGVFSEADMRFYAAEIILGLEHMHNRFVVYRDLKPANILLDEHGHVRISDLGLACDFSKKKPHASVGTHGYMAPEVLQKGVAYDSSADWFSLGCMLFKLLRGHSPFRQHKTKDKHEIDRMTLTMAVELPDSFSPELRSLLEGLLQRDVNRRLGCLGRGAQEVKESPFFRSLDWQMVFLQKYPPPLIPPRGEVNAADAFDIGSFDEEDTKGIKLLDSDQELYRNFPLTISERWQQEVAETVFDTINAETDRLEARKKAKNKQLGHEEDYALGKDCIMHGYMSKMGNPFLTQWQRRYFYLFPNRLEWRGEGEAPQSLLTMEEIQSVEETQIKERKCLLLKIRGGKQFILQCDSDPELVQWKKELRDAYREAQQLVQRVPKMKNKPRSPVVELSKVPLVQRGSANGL
The test is described as follows: Lance Kinase Activity Assay, GRK2. The following applies: biochemical Lance kinase activity assay; class symbols A-F; read-out: GRK2 LANCE Assay (IC-50). An outline of the steps: (§1)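 IC50s from sigmoidal dose-response over 0.0025-10 μM compound, with phosphorylated ULight substrate detected by Eu anti-phospho antibody FRET after EDTA quench.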
Background: In TR-FRET formats the signal depends on donor and acceptor labels being close together.

The target of another test is T2, GRK5 (Homo sapiens, UniProt P34947).
T2 construct: purchased Thermo Scientific
The test is described as follows: Lance Kinase Activity Assay, GRK5. The following applies: biochemical Lance kinase activity assay; class symbols A-F; read-out: GRK5 LANCE Assay (IC-50). The method, boiled down: as §1

T2 sequence (P34947 whole entry): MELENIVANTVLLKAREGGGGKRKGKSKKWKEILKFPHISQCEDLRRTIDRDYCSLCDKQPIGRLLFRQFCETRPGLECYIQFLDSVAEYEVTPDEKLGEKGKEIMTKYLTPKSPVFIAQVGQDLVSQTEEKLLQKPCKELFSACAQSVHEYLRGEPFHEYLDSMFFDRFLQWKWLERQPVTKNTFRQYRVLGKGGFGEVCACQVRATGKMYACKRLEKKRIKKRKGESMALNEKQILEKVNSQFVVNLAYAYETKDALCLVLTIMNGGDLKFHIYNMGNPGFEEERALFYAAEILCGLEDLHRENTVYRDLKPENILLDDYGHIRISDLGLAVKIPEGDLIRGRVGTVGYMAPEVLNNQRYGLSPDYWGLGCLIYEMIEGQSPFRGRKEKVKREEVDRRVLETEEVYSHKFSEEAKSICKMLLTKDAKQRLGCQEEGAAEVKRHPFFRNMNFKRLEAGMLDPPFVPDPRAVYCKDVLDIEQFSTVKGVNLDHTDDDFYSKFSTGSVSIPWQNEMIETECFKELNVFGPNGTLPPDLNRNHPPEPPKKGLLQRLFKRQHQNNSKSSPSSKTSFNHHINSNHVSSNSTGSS

As for `COc1ccc([C@@H](C)NC(=O)/C=C/c2c[nH]c3ncc(-c4cnn(C)c4)cc23)cc1OC` [Example 204, (R,E)-N-(1-(3,4-dimethoxyphenyl)ethyl)-3-(5-(1-methyl-1H-pyrazol-4-yl)-1H-pyrrolo[2,3-b]pyridin-3-yl)acrylamide], the results for the IC50 at GRK2 and at GRK5 were 1 to 10 µM and at most 0.05 µM, respectively.
The like results for `CN(C)c1ccc(CNC(=O)/C(C#N)=C/c2c[nH]c3ncccc23)cc1` [Example 24, (E)-2-cyano-N-(4-(dimethylamino)benzyl)-3-(1H-pyrrolo[2,3-b]pyridin-3-yl)acrylamide] were, in that order, over 10 µM and 1 to 10 µM.
The corresponding values for `COc1ccc([C@@H](C)NC(=O)/C=C/c2c[nH]c3ncc(-c4cnn(CCN5CCOCC5)c4)cc23)cc1OC` [Example 210, (R,E)-N-(1-(3,4-dimethoxyphenyl)ethyl)-3-(5-(1-(2-morpholinoethyl)-1H-pyrazol-4-yl)-1H-pyrrolo[2,3-b]pyridin-3-yl)acrylamide] are 1 to 10 µM and at most 0.05 µM.
`COc1ccc([C@@H](C)NC(=O)/C=C/c2c[nH]c3ncc(-c4ccc(NS(C)(=O)=O)cc4)cc23)cc1OC` [Example 187]: the IC50 is 1 to 10 µM at GRK2 and at most 0.05 µM at GRK5.
With `COc1ccc([C@@H](C)NC(=O)/C=C/c2c[nH]c3nccc(-c4ccc(CN(C)C)cc4)c23)cc1OC` [Example 223, (R,E)-N-(1-(3,4-dimethoxyphenyl)ethyl)-3-(4-(4-((dimethylamino)methyl)phenyl)-1H-pyrrolo[2,3-b]pyridin-3-yl)acrylamide], the figures for the IC50 at GRK2 and on GRK5 were over 10 µM and 0.1 to 0.5 µM, respectively.
The like results for `COc1ccc([C@@H](C)NC(=O)/C(C#N)=C/c2c[nH]c3ncc(-c4ccc5ccccc5c4)cc23)cc1OC` [Example 144] were, in that order, over 10 µM and 0.1 to 0.5 µM.
On to `C[C@@H](NC(=O)/C(C#N)=C/c1c[nH]c2ncc(-c3cnn(C)c3)cc12)c1ccc(F)cc1` [Example 93, (R,E)-2-cyano-N-(1-(4-fluorophenyl)ethyl)-3-(5-(1-methyl-1H-pyrazol-4-yl)-1H-pyrrolo[2,3-b]pyridin-3-yl)acrylamide], for which the IC50 at GRK2 was 0.1 to 0.5 µM; on GRK5 it was at most 0.05 µM.
The like results for `COc1ccc([C@@H](C)NC(=O)/C=C/c2c[nH]c3ncc(-c4cc(Cl)cc(S(C)(=O)=O)c4)cc23)cc1OC` [Example 247, (R,E)-3-(5-(3-chloro-5-(methylsulfonyl)phenyl)-1H-pyrrolo[2,3-b]pyridin-3-yl)-N-(1-(3,4-dimethoxyphenyl)ethyl)acrylamide] were, in that order, over 10 µM and at most 0.05 µM.
Take `COc1ccc([C@@H](C)NC(=O)/C=C/c2c[nH]c3ncc(-c4cccc(CN5CCN(C)CC5)c4)cc23)cc1OC` [Example 183]: the IC50 at GRK2 was over 10 µM; at GRK5, at most 0.05 µM.
With `COc1ccc([C@@H](C)NC(=O)/C=C/c2c[nH]c3ncc(-c4c(C)nn(C)c4C)cc23)cc1OC` [Example 209, (R,E)-N-(1-(3,4-dimethoxyphenyl)ethyl)-3-(5-(1,3,5-trimethyl-1H-pyrazol-4-yl)-1H-pyrrolo[2,3-b]pyridin-3-yl)acrylamide], the IC50 at GRK2 was over 10 µM; at GRK5, 0.05 to 0.1 µM.
For the molecule `Cc1noc2ccc([C@@H](C)NC(=O)/C=C/c3c[nH]c4ncc(-c5cnn(C)c5)cc34)cc12` [Example 260, (R,E)-3-(5-(1-methyl-1H-pyrazol-4-yl)-1H-pyrrolo[2,3-b]pyridin-3-yl)-N-(1-(3-methylbenzo[d]isoxazol-5-yl)ethyl)acrylamide], the IC50 is 0.05 to 0.1 µM on GRK2 and at most 0.05 µM on GRK5.
The like results for `COc1ccc([C@@H](C)NC(=O)/C=C/c2c[nH]c3ncc(-c4cc(S(C)(=O)=O)ccn4)cc23)cc1OC` [Example 259, (R,E)-N-(1-(3,4-dimethoxyphenyl)ethyl)-3-(5-(4-(methylsulfonyl)pyridin-2-yl)-1H-pyrrolo[2,3-b]pyridin-3-yl)acrylamide] were, in that order, 1 to 10 µM and at most 0.05 µM.
The like results for `C[C@@H](NC(=O)/C(C#N)=C/c1c[nH]c2ncccc12)c1ccc(F)c(F)c1` [Example 16, (R,E)-2-cyano-N-(1-(3,4-difluorophenyl)ethyl)-3-(1H-pyrrolo[2,3-b]pyridin-3-yl)acrylamide] were, in that order, 0.05 to 0.1 µM and 0.05 to 0.1 µM.
The like results for `N#C/C(=C\c1c[nH]c2ncccc12)C(=O)NCc1ccc(C#N)cc1` [Example 26, (E)-2-cyano-N-(4-cyanobenzyl)-3-(1H-pyrrolo[2,3-b]pyridin-3-yl)acrylamide] were, in that order, 1 to 10 µM and 1 to 10 µM.
As for `COc1ccc([C@@H](C)NC(=O)/C(C#N)=C/c2c[nH]c3nccc(-c4cc(F)cc(F)c4)c23)cc1OC` [Example 178], the figures for the IC50 on GRK2 and at GRK5 were over 10 µM and 0.1 to 0.5 µM, respectively.
Regarding `COc1ccc([C@@H](C)NC(=O)/C(C#N)=C/c2c[nH]c3ncc(-c4cccc(CN(C)C)c4)cc23)cc1OC` [Example 148], the IC50 on GRK2 is 1 to 10 µM; at GRK5 it was at most 0.05 µM.
Consider `N#C/C(=C\c1c[nH]c2ncccc12)C(=O)NCc1ccccc1CN1CCOCC1` [Example 37, (E)-2-cyano-N-(2-(morpholinomethyl)benzyl)-3-(1H-pyrrolo[2,3-b]pyridin-3-yl)acrylamide], for which the IC50 at GRK2 is over 10 µM; at GRK5 it was 1 to 10 µM.
With `COc1ccc([C@@H](C)NC(=O)/C=C/c2c[nH]c3ncc(-c4cncc(S(C)(=O)=O)c4)cc23)cc1OC` [Example 218, (R,E)-N-(1-(3,4-dimethoxyphenyl)ethyl)-3-(5-(5-(methylsulfonyl)pyridin-3-yl)-1H-pyrrolo[2,3-b]pyridin-3-yl)acrylamide], the IC50 was over 10 µM at GRK2 and at most 0.05 µM at GRK5.
The corresponding values for `C[C@@H](NC(=O)/C(C#N)=C/c1c[nH]c2ncc(Br)cc12)c1ccc(F)cc1` [Example 79, (R,E)-3-(5-bromo-1H-pyrrolo[2,3-b]pyridin-3-yl)-2-cyano-N-(1-(4-fluorophenyl)ethyl)acrylamide] are 1 to 10 µM and 0.1 to 0.5 µM.
Turning to `COc1ccc([C@@H](C)NC(=O)/C(C#N)=C/c2c[nH]c3ncc(-c4cccc(OCCN(C)C)c4)cc23)cc1OC` [Example 152], the IC50 on GRK2 is 1 to 10 µM; on GRK5 it was at most 0.05 µM.
For `COc1ccc([C@@H](C)NC(=O)/C=C/c2c[nH]c3ncc(-c4cccc(S(C)(=O)=O)c4)cc23)cc1OC` [Example 114, (R,E)-N-(1-(3,4-dimethoxyphenyl)ethyl)-3-(5-(3-(methylsulfonyl)phenyl)-1H-pyrrolo[2,3-b]pyridin-3-yl)acrylamide], the IC50 on GRK2 was 1 to 10 µM; at GRK5 it was at most 0.05 µM.
The corresponding values for `COc1ccc([C@@H](C)NC(=O)/C(C#N)=C/c2c[nH]c3ncc(N4CCN(C)CC4)cc23)cc1OC` [Example 85] are over 10 µM and at most 0.05 µM.
For the molecule `COc1ccc([C@@H](C)NC(=O)/C=C/c2c[nH]c3ncc(-c4ccc(CN5CCOCC5)cc4)cc23)cc1OC` [Example 194], the IC50 on GRK2 is 1 to 10 µM; on GRK5, at most 0.05 µM.
With `C[C@@H](NC(=O)/C=C/c1c[nH]c2ncc(-c3cnn(C)c3)cc12)c1ccc2c(c1)OCO2` [Example 246, (R,E)-N-(1-(benzo[d][1,3]dioxol-5-yl)ethyl)-3-(5-(1-methyl-1H-pyrazol-4-yl)-1H-pyrrolo[2,3-b]pyridin-3-yl)acrylamide], the IC50 at GRK2 is 1 to 10 µM; at GRK5, at most 0.05 µM.
Take `COc1ccc([C@@H](C)NC(=O)/C=C/c2c[nH]c3ncc(-c4cccc(S(N)(=O)=O)c4)cc23)cc1OC` [Example 208, (R,E)-N-(1-(3,4-dimethoxyphenyl)ethyl)-3-(5-(3-sulfamoylphenyl)-1H-pyrrolo[2,3-b]pyridin-3-yl)acrylamide]: the IC50 on GRK2 was 1 to 10 µM; on GRK5, at most 0.05 µM.
Turning to `COc1ccc([C@@H](C)NC(=O)/C=C/c2c[nH]c3ncc(-c4cn(C)nc4C)cc23)cc1OC` [Example 212, (R,E)-N-(1-(3,4-dimethoxyphenyl)ethyl)-3-(5-(1,3-dimethyl-1H-pyrazol-4-yl)-1H-pyrrolo[2,3-b]pyridin-3-yl)acrylamide], the IC50 was 1 to 10 µM at GRK2 and at most 0.05 µM at GRK5.
`COc1ccc([C@@H](C)NC(=O)/C(C#N)=C/c2c[nH]c3ncc(-c4cn(C)cn4)cc23)cc1OC` [Example 166, (R,E)-2-cyano-N-(1-(3,4-dimethoxyphenyl)ethyl)-3-(5-(1-methyl-1H-imidazol-4-yl)-1H-pyrrolo[2,3-b]pyridin-3-yl)acrylamide]: the IC50 on GRK2 was 1 to 10 µM; on GRK5 it was at most 0.05 µM.
The like results for `CC(=O)Nc1cccc(CNC(=O)/C(C#N)=C/c2c[nH]c3ncccc23)c1` [Example 34, (E)-N-(3-acetamidobenzyl)-2-cyano-3-(1H-pyrrolo[2,3-b]pyridin-3-yl)acrylamide] were, in that order, at most 0.05 µM and 0.1 to 0.5 µM.
